Results as given in article PMC12155888, “Design, Synthesis, and Antitumor Biological Evaluation of Galaxamide and Its Analogs” (Molecules, 2025).
Where “and” joins values, the source holds several entries; their conditions need not be identical. Equal values may be shown once.

Test: not given
Conditions: amide bond; 15-membered ring; PyBOP/DMAP; MeCN; 4.3 mM

Row | Compound | ring closure, isolated yield
1 | Cyclo(Me-D-Leu-D-Leu-D-Leu-Me-D-Leu-D-Leu) | 48%
2 | Cyclo(Me-D-Leu-D-Leu-L-Leu-Me-D-Leu-D-Leu) | 50%
3 | Cyclo(Me-D-Leu-L-Leu-D-Leu-Me-D-Leu-L-Leu) | 45%
4 | Cyclo(Me-D-Leu-L-Leu-L-Leu-Me-D-Leu-L-Leu) | 48%
5 | Cyclo(Me-L-Leu-D-Leu-D-Leu-Me-L-Leu-D-Leu) | 54%
6 | Cyclo(Me-L-Leu-D-Leu-L-Leu-Me-L-Leu-D-Leu) | 45%
7 | Cyclo(Me-L-Leu-L-Leu-2-Me-D-Phe-Me-L-Leu-L-Leu) | 53%
8 | Cyclo(Me-L-Leu-L-Leu-3-Flu-D-Phe-Me-L-Leu-L-Leu) | 53%
9 | Cyclo(Me-L-Leu-L-Leu-3-Me-D-Phe-Me-L-Leu-L-Leu) | 53% and 50%
10 | Cyclo(Me-L-Leu-L-Leu-4-Bro-D-Phe-Me-L-Leu-L-Leu) | 55%
11 | Cyclo(Me-L-Leu-L-Leu-4-Chl-D-Phe-Me-L-Leu-L-Leu) | 55%
12 | Cyclo(Me-L-Leu-L-Leu-D-Ala-Me-L-Leu-L-Leu) | 49%
13 | Cyclo(Me-L-Leu-L-Leu-D-Leu-Me-L-Leu-L-Leu) | 45%
14 | Cyclo(Me-L-Leu-L-Leu-D-Met-Me-L-Leu-L-Leu) | 52%
15 | Cyclo(Me-L-Leu-L-Leu-D-Phe-Me-L-Leu-L-Leu) | 51%
16 | Cyclo(Me-L-Leu-L-Leu-D-Pro-Me-L-Leu-L-Leu) | 51%
17 | Cyclo(Me-L-Leu-L-Leu-D-Val-Me-L-Leu-L-Leu) | 50%
18 | Cyclo(Me-L-Leu-L-Leu-D-cyclohexyl-Gly-Me-L-Leu-L-Leu) | 51%
19 | Cyclo(Me-L-Leu-L-Leu-D-phenyl-Gly-Me-L-Leu-L-Leu) | 51%
20 | Cyclo(Me-L-Leu-L-Leu-Gly-Me-L-Leu-L-Leu) | 51%
21 | Cyclo(Me-L-Leu-L-Leu-Methylester-D-Asp-Me-L-Leu-L-Leu) | 52%
22 | Cyclo(Me-L-Leu-L-Leu-O-Me-D-Ser-Me-L-Leu-L-Leu) | 52%
23 | Cyclo(Me-L-Leu-L-Leu-O-Tyr-Me-L-Leu-L-Leu) | 52%

Test: head-to-tail macrolactamisation of free linear pentapeptide 10 (H-NMeAA...Leu-OH), PyBOP (2 equiv), DMAP (3 equiv); Route E: peptide solution (4.3 mM in MeCN) added dropwise over 10 h to PyBOP/DMAP in MeCN, further 3 h stirring
Conditions: the molecule shown is the open-chain precursor; 15-membered ring; CH3CN; 1.0 mM; 20.0 °C; 13.0 h

Row | Compound | ring closure, isolated yield [%]
24 | CN[C@H](CC(C)C)C(=O)N[C@H](CC(C)C)C(=O)N[C@H](CC(C)C)C(=O)N(C)[C@H](CC(C)C)C(=O)N[C@H](CC(C)C)C(=O)O [H-D-N(Me)Leu-D-Leu-D-Leu-D-N(Me)Leu-D-Leu-OH] | 48
25 | CN[C@H](CC(C)C)C(=O)N[C@H](CC(C)C)C(=O)N[C@@H](CC(C)C)C(=O)N(C)[C@H](CC(C)C)C(=O)N[C@H](CC(C)C)C(=O)O [H-D-N(Me)Leu-D-Leu-Leu-D-N(Me)Leu-D-Leu-OH] | 50
26 | CN[C@H](CC(C)C)C(=O)N[C@@H](CC(C)C)C(=O)N[C@H](CC(C)C)C(=O)N(C)[C@H](CC(C)C)C(=O)N[C@@H](CC(C)C)C(=O)O [H-D-N(Me)Leu-Leu-D-Leu-D-N(Me)Leu-Leu-OH] | 45
27 | CN[C@H](CC(C)C)C(=O)N[C@@H](CC(C)C)C(=O)N[C@@H](CC(C)C)C(=O)N(C)[C@H](CC(C)C)C(=O)N[C@@H](CC(C)C)C(=O)O [H-D-N(Me)Leu-Leu-Leu-D-N(Me)Leu-Leu-OH] | 48
28 | CN[C@@H](CC(C)C)C(=O)N[C@H](CC(C)C)C(=O)N[C@H](CC(C)C)C(=O)N(C)[C@@H](CC(C)C)C(=O)N[C@H](CC(C)C)C(=O)O [H-N(Me)Leu-D-Leu-D-Leu-N(Me)Leu-D-Leu-OH] | 54
29 | CN[C@@H](CC(C)C)C(=O)N[C@H](CC(C)C)C(=O)N[C@@H](CC(C)C)C(=O)N(C)[C@@H](CC(C)C)C(=O)N[C@H](CC(C)C)C(=O)O [H-N(Me)Leu-D-Leu-Leu-N(Me)Leu-D-Leu-OH] | 45
30 | CN[C@@H](CC(C)C)C(=O)N[C@@H](CC(C)C)C(=O)N[C@H](C)C(=O)N(C)[C@@H](CC(C)C)C(=O)N[C@@H](CC(C)C)C(=O)O [H-N(Me)Leu-Leu-D-Ala-N(Me)Leu-Leu-OH] | 49
31 | CN[C@@H](CC(C)C)C(=O)N[C@@H](CC(C)C)C(=O)N[C@H](CC(=O)OC)C(=O)N(C)[C@@H](CC(C)C)C(=O)N[C@@H](CC(C)C)C(=O)O [H-N(Me)Leu-Leu-D-Asp(OMe)-N(Me)Leu-Leu-OH] | 52
32 | CN[C@@H](CC(C)C)C(=O)N[C@@H](CC(C)C)C(=O)N[C@@H](C(=O)N(C)[C@@H](CC(C)C)C(=O)N[C@@H](CC(C)C)C(=O)O)C1CCCCC1 [H-N(Me)Leu-Leu-D-Chg-N(Me)Leu-Leu-OH] | 51
33 | CN[C@@H](CC(C)C)C(=O)N[C@@H](CC(C)C)C(=O)N[C@H](CC(C)C)C(=O)N(C)[C@@H](CC(C)C)C(=O)N[C@@H](CC(C)C)C(=O)O [H-N(Me)Leu-Leu-D-Leu-N(Me)Leu-Leu-OH] | 45
34 | CN[C@@H](CC(C)C)C(=O)N[C@@H](CC(C)C)C(=O)N[C@H](CCSC)C(=O)N(C)[C@@H](CC(C)C)C(=O)N[C@@H](CC(C)C)C(=O)O [H-N(Me)Leu-Leu-D-Met-N(Me)Leu-Leu-OH] | 52
35 | CN[C@@H](CC(C)C)C(=O)N[C@@H](CC(C)C)C(=O)N[C@H](Cc1ccccc1C)C(=O)N(C)[C@@H](CC(C)C)C(=O)N[C@@H](CC(C)C)C(=O)O [H-N(Me)Leu-Leu-D-Phe(2-Me)-N(Me)Leu-Leu-OH] | 53
36 | CN[C@@H](CC(C)C)C(=O)N[C@@H](CC(C)C)C(=O)N[C@H](Cc1cccc(F)c1)C(=O)N(C)[C@@H](CC(C)C)C(=O)N[C@@H](CC(C)C)C(=O)O [H-N(Me)Leu-Leu-D-Phe(3-F)-N(Me)Leu-Leu-OH] | 53
37 | CN[C@@H](CC(C)C)C(=O)N[C@@H](CC(C)C)C(=O)N[C@H](Cc1cccc(C)c1)C(=O)N(C)[C@@H](CC(C)C)C(=O)N[C@@H](CC(C)C)C(=O)O [H-N(Me)Leu-Leu-D-Phe(3-Me)-N(Me)Leu-Leu-OH] | 53
38 | CN[C@@H](CC(C)C)C(=O)N[C@@H](CC(C)C)C(=O)N[C@H](Cc1ccc(Br)cc1)C(=O)N(C)[C@@H](CC(C)C)C(=O)N[C@@H](CC(C)C)C(=O)O [H-N(Me)Leu-Leu-D-Phe(4-Br)-N(Me)Leu-Leu-OH] | 55
39 | CN[C@@H](CC(C)C)C(=O)N[C@@H](CC(C)C)C(=O)N[C@H](Cc1ccc(Cl)cc1)C(=O)N(C)[C@@H](CC(C)C)C(=O)N[C@@H](CC(C)C)C(=O)O [H-N(Me)Leu-Leu-D-Phe(4-Cl)-N(Me)Leu-Leu-OH] | 55
40 | CN[C@@H](CC(C)C)C(=O)N[C@@H](CC(C)C)C(=O)N[C@H](Cc1ccc(C)cc1)C(=O)N(C)[C@@H](CC(C)C)C(=O)N[C@@H](CC(C)C)C(=O)O [H-N(Me)Leu-Leu-D-Phe(4-Me)-N(Me)Leu-Leu-OH] | 50
41 | CN[C@@H](CC(C)C)C(=O)N[C@@H](CC(C)C)C(=O)N[C@H](Cc1ccccc1)C(=O)N(C)[C@@H](CC(C)C)C(=O)N[C@@H](CC(C)C)C(=O)O [H-N(Me)Leu-Leu-D-Phe-N(Me)Leu-Leu-OH] | 51
42 | CN[C@@H](CC(C)C)C(=O)N[C@@H](CC(C)C)C(=O)N[C@@H](C(=O)N(C)[C@@H](CC(C)C)C(=O)N[C@@H](CC(C)C)C(=O)O)c1ccccc1 [H-N(Me)Leu-Leu-D-Phg-N(Me)Leu-Leu-OH] | 51
43 | CN[C@@H](CC(C)C)C(=O)N[C@@H](CC(C)C)C(=O)N1CCC[C@@H]1C(=O)N(C)[C@@H](CC(C)C)C(=O)N[C@@H](CC(C)C)C(=O)O [H-N(Me)Leu-Leu-D-Pro-N(Me)Leu-Leu-OH] | 51
44 | CN[C@@H](CC(C)C)C(=O)N[C@@H](CC(C)C)C(=O)N[C@H](COC)C(=O)N(C)[C@@H](CC(C)C)C(=O)N[C@@H](CC(C)C)C(=O)O [H-N(Me)Leu-Leu-D-Ser(OMe)-N(Me)Leu-Leu-OH] | 52
45 | CN[C@@H](CC(C)C)C(=O)N[C@@H](CC(C)C)C(=O)N[C@H](Cc1ccc(OC)cc1)C(=O)N(C)[C@@H](CC(C)C)C(=O)N[C@@H](CC(C)C)C(=O)O [H-N(Me)Leu-Leu-D-Tyr(OMe)-N(Me)Leu-Leu-OH] | 52
46 | CN[C@@H](CC(C)C)C(=O)N[C@@H](CC(C)C)C(=O)N[C@@H](C(=O)N(C)[C@@H](CC(C)C)C(=O)N[C@@H](CC(C)C)C(=O)O)C(C)C [H-N(Me)Leu-Leu-D-Val-N(Me)Leu-Leu-OH] | 50
47 | CN[C@@H](CC(C)C)C(=O)N[C@@H](CC(C)C)C(=O)NCC(=O)N(C)[C@@H](CC(C)C)C(=O)N[C@@H](CC(C)C)C(=O)O [H-N(Me)Leu-Leu-Gly-N(Me)Leu-Leu-OH] | 51
